Measured values reported in patent US20250002507A1, “7,8-DIHYDRO-5H-1,6-NAPHTHYRIDINE DERIVATIVES AS POSITIVE ALLOSTERIC MODULATORS OF THE MUSCARINIC ACETYLCHOLINE RECEPTOR M4 FOR TREATING NEUROLOGICAL AND PSYCHIATRIC DISORDERS” (Vanderbilt University, priority 2021, published 2025).
Read-outs that look alike come from different tables or passages of the source.

Target: T1, Human M4 (Homo sapiens, UniProt P08173)
T1 construct: expressed in transfected cells
T1 sequence (P08173 1-479): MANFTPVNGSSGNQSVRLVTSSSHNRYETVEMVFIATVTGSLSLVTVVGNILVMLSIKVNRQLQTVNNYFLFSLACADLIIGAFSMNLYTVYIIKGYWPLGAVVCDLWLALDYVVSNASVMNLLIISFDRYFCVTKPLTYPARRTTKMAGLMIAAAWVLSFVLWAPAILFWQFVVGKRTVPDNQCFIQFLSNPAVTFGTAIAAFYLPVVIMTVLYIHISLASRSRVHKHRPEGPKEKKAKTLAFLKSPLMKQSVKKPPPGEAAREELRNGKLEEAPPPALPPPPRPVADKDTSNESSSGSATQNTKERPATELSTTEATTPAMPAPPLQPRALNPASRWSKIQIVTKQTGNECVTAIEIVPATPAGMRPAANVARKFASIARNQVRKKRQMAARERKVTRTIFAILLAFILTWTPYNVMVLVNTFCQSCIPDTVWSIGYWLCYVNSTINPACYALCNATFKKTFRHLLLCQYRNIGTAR
Test: mAChR M4 cell-based functional assay (calcium flux, potentiation of EC20 acetylcholine response), hM4-Gqi5 CHO-K1 cells
Conditions: for Emax: CHO-K1, read-out: Emax (% ACh maximum at 30 μM); for Emax at 30 µM: CHO-K1, Human M4, % ACh maximum at 30 μM, read-out: Emax (% ACh maximum at 30 μM)
How it was run: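 CHO-K1 cells stably expressing human M4 with chimeric Gqi5, loaded with Fluo-4 AM 50 min at 37 °C; calcium flux read by FDSS. 11-point 1:3 compound curves added, then EC20 acetylcholine at 144 s; potentiation of the EC20 response fitted by four-parameter logistic to give EC50 and Emax.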

[1] = Table 3, potentiation of EC20 acetylcholine response, calcium flux, CHO-K1 cells, read-out: Human M4 EC50

Row | Compound | EC50 [1] [nM] | Emax at 30 µM (Table 3) [%] | Emax [%] | EC50 [nM]
1 | Cc1c(N2CCc3ncc(N)cc3C2)nn2cnnc2c1C [Compound 152, 6-(7,8-dimethyl-[1,2,4]triazolo[4,3-b]pyridazin-6-yl)-5,6,7,8-tetrahydro-1,6-naphthyridin-3-amine] | 1280 | – | 102 | –
2 | COc1ccc(C(=O)Nc2cnc3c(c2)CN(c2nn4cnnc4c(C)c2C)CC3)cn1 [Compound 155, N-(6-(7,8-dimethyl-[1,2,4]triazolo[4,3-b]pyridazin-6-yl)-5,6,7,8-tetrahydro-1,6-naphthyridin-3-yl)-6-methoxynicotinamide] | 966 | 92 | – | –
3 | Cc1ccccc1C(=O)Nc1cnc2c(c1)CN(c1nn3cnnc3c(C)c1C)CC2 [Compound 156, N-(6-(7,8-dimethyl-[1,2,4]triazolo[4,3-b]pyridazin-6-yl)-5,6,7,8-tetrahydro-1,6-naphthyridin-3-yl)-2-methylbenzamide] | 4210 | 70 | – | –
4 | Cc1cccc(C(=O)Nc2cnc3c(c2)CN(c2nn4cnnc4c(C)c2C)CC3)c1 [Compound 157, N-(6-(7,8-dimethyl-[1,2,4]triazolo[4,3-b]pyridazin-6-yl)-5,6,7,8-tetrahydro-1,6-naphthyridin-3-yl)-3-methylbenzamide] | 785 | 96 | – | –
5 | Cc1c(N2CCc3ncc(NC(=O)c4ccc(F)cc4)cc3C2)nn2cnnc2c1C [Compound 158, N-(6-(7,8-dimethyl-[1,2,4]triazolo[4,3-b]pyridazin-6-yl)-5,6,7,8-tetrahydro-1,6-naphthyridin-3-yl)-4-fluorobenzamide] | 672 | 79 | – | –
6 | Cc1c(N2CCc3ncc(Oc4ccccc4F)cc3C2)nn2cnnc2c1C [Compound 159, 6-(7,8-dimethyl-[1,2,4]triazolo[4,3-b]pyridazin-6-yl)-3-(2-fluorophenoxy)-5,6,7,8-tetrahydro-1,6-naphthyridine] | 107 | 109 | – | –
7 | Cc1c(N2CCc3ncc(Oc4cccc(F)c4)cc3C2)nn2cnnc2c1C [Compound 160, 6-(7,8-dimethyl-[1,2,4]triazolo[4,3-b]pyridazin-6-yl)-3-(3-fluorophenoxy)-5,6,7,8-tetrahydro-1,6-naphthyridine] | 145 | 111 | – | –
8 | Cc1cnc2c(c1)CN(c1nn3cc(C(=O)N4CCOCC4)nc3cc1C)CC2 [Compound 162, (7-methyl-6-(3-methyl-7,8-dihydro-1,6-naphthyridin-6(5H)-yl)imidazo[1,2-b]pyridazin-2-yl)(morpholino)methanone] | 846 | 105 | – | –
9 | Cc1cc2c(nc1C)CCN(c1nn3cnnc3c(C)c1C)C2 [Compound 167, 6-(7,8-dimethyl-[1,2,4]triazolo[4,3-b]pyridazin-6-yl)-2,3-dimethyl-5,6,7,8-tetrahydro-1,6-naphthyridine] | 188 | – | 106 | –
10 | Cc1cnc2c(c1)CN(c1nn3cc(C(=O)NC4CC4)nc3cc1C)CC2 [Compound 168, N-cyclopropyl-7-methyl-6-(3-methyl-7,8-dihydro-1,6-naphthyridin-6(5H)-yl)imidazo[1,2-b]pyridazine-2-carboxamide] | 3250 | 54 | – | –
11 | Cc1cnc2c(c1)CN(c1nn3cc(C(=O)N4CCN(C)CC4)nc3cc1C)CC2 [Compound 169, (7-methyl-6-(3-methyl-7,8-dihydro-1,6-naphthyridin-6(5H)-yl)imidazo[1,2-b]pyridazin-2-yl)(4-methylpiperazin-1-yl)methanone] | 1180 | 111 | – | –
12 | Cc1cnc2c(c1)CN(c1nn3cc(C(=O)N4CCCCC4)nc3cc1C)CC2 [Compound 170, (7-methyl-6-(3-methyl-7,8-dihydro-1,6-naphthyridin-6(5H)-yl)imidazo[1,2-b]pyridazin-2-yl)(piperidin-1-yl)methanone] | 934 | 105 | – | –
13 | Cc1cnc2c(c1)CN(c1nn3cc(C(=O)N4CCCC4)nc3cc1C)CC2 [Compound 171, [7-Methyl-6-(3-methyl-7,8-dihydro-5H-1,6-naphthyridin-6-yl)imidazo[1,2-b]pyridazin-2-yl]-pyrrolidin-1-yl-methanone] | 1040 | 107 | – | –
14 | Cc1c(N2CCc3ncc(-c4cccnc4C(F)(F)F)cc3C2)nn2cnnc2c1C [Compound 172, 6-(7,8-dimethyl-[1,2,4]triazolo[4,3-b]pyridazin-6-yl)-3-(2-(trifluoromethyl)pyridin-3-yl)-5,6,7,8-tetrahydro-1,6-naphthyridine] | 3530 | 73 | – | –
15 | CCc1ccncc1-c1cnc2c(c1)CN(c1nn3cnnc3c(C)c1C)CC2 [Compound 175, 6-(7,8-dimethyl-[1,2,4]triazolo[4,3-b]pyridazin-6-yl)-3-(4-ethylpyridin-3-yl)-5,6,7,8-tetrahydro-1,6-naphthyridine] | 155 | 81 | – | –
16 | COc1ncc(-c2cnc3c(c2)CN(c2nn4cnnc4c(C)c2C)CC3)cc1F [Compound 176, 6-(7,8-dimethyl-[1,2,4]triazolo[4,3-b]pyridazin-6-yl)-3-(5-fluoro-6-methoxypyridin-3-yl)-5,6,7,8-tetrahydro-1,6-naphthyridine] | – | – | 89 | 587
17 | Cc1c(N2CCc3ncc(-c4cnc(Cl)c(F)c4)cc3C2)nn2cnnc2c1C [Compound 177, 3-(6-chloro-5-fluoropyridin-3-yl)-6-(7,8-dimethyl-[1,2,4]triazolo[4,3-b]pyridazin-6-yl)-5,6,7,8-tetrahydro-1,6-naphthyridine] | 747 | 85 | – | –
18 | COc1cnc(Cl)c(-c2cnc3c(c2)CN(c2nn4cnnc4c(C)c2C)CC3)c1 [Compound 178, 3-(2-chloro-5-methoxypyridin-3-yl)-6-(7,8-dimethyl-[1,2,4]triazolo[4,3-b]pyridazin-6-yl)-5,6,7,8-tetrahydro-1,6-naphthyridine] | 578 | 85 | – | –

The next lines start with results.

Row | EC50 [1] [nM] | Emax at 30 µM (Table 3) [%] | Compound | Emax [%] | EC50 [nM]
19 | 3380 | 84 | CC(=O)Nc1cnc2c(c1)CN(c1nn3cnnc3c(C)c1C)CC2 [Compound 153, N-(6-(7,8-dimethyl-[1,2,4]triazolo[4,3-b]pyridazin-6-yl)-5,6,7,8-tetrahydro-1,6-naphthyridin-3-yl)acetamide] | – | –
20 | 3630 | 79 | Cc1c(N2CCc3ncc(NC(=O)C(C)C)cc3C2)nn2cnnc2c1C [Compound 154, N-(6-(7,8-dimethyl-[1,2,4]triazolo[4,3-b]pyridazin-6-yl)-5,6,7,8-tetrahydro-1,6-naphthyridin-3-yl)isobutyramide] | – | –
21 | 2750 | 105 | COc1nc2c(cc1C)CN(c1nn3cnnc3c(C)c1C)CC2 [Compound 161, 6-(7,8-dimethyl-[1,2,4]triazolo[4,3-b]pyridazin-6-yl)-2-methoxy-3-methyl-5,6,7,8-tetrahydro-1,6-naphthyridine] | – | –
22 | 754 | 107 | Cc1c(N2CCc3ncc(Nc4cnn(C)c4)cc3C2)nn2cnnc2c1C [Compound 163, 6-(7,8-dimethyl-[1,2,4]triazolo[4,3-b]pyridazin-6-yl)-N-(1-methyl-1H-pyrazol-4-yl)-5,6,7,8-tetrahydro-1,6-naphthyridin-3-amine] | – | –
23 | 152 | 109 | Cc1c(N2CCc3ncc(Nc4ccnn4C)cc3C2)nn2cnnc2c1C [Compound 164, 6-(7,8-dimethyl-[1,2,4]triazolo[4,3-b]pyridazin-6-yl)-N-(1-methyl-1H-pyrazol-5-yl)-5,6,7,8-tetrahydro-1,6-naphthyridin-3-amine] | – | –
24 | 1870 | 102 | CCC(C)(O)c1cnc2c(c1)CN(c1nn3cnnc3c(C)c1C)CC2 (centres unmarked) [Compound 165, 2-(6-(7,8-dimethyl-[1,2,4]triazolo[4,3-b]pyridazin-6-yl)-5,6,7,8-tetrahydro-1,6-naphthyridin-3-yl)butan-2-ol] | – | –
25 | 1850 | 95 | Cc1c(N2CCc3ncc(C(C)(O)C4CC4)cc3C2)nn2cnnc2c1C (centres unmarked) [Compound 166, 1-cyclopropyl-1-(6-(7,8-dimethyl-[1,2,4]triazolo[4,3-b]pyridazin-6-yl)-5,6,7,8-tetrahydro-1,6-naphthyridin-3-yl)ethan-1-ol] | – | –
26 | 937 | 80 | COc1ncc(-c2cnc3c(c2)CN(c2nn4cnnc4c(C)c2C)CC3)cc1Cl [Compound 173, 3-(5-chloro-6-methoxypyridin-3-yl)-6-(7,8-dimethyl-[1,2,4]triazolo[4,3-b]pyridazin-6-yl)-5,6,7,8-tetrahydro-1,6-naphthyridine] | – | –
27 | 1070 | 85 | COc1nc(Cl)ccc1-c1cnc2c(c1)CN(c1nn3cnnc3c(C)c1C)CC2 [Compound 174, 3-(6-chloro-2-methoxypyridin-3-yl)-6-(7,8-dimethyl-[1,2,4]triazolo[4,3-b]pyridazin-6-yl)-5,6,7,8-tetrahydro-1,6-naphthyridine] | – | –
28 | 906 | 84 | COc1ncc(F)cc1-c1cnc2c(c1)CN(c1nn3cnnc3c(C)c1C)CC2 [Compound 179, 6-(7,8-dimethyl-[1,2,4]triazolo[4,3-b]pyridazin-6-yl)-3-(5-fluoro-2-methoxypyridin-3-yl)-5,6,7,8-tetrahydro-1,6-naphthyridine] | – | –
